Assay type in all cases: cell-based
The subject of assay [1] is Botrytis cinerea. As to the kind of experiment: Microtest: activity against the grey mold pathogen Botrytis cinerea. The note with it: single compound, 7 days; for inhibition of growth at 0.25 ppm / inhibition of growth at 1 ppm / inhibition of growth at 4 ppm: Botrytis cinerea, 168 h, read-out: Observed efficacy.
Assay [2] has as its system Phytophthora infestans. The note with it: single compound, 7 days.
Assay [3] relates to Alternaria solani. The assay can be described thus: Microtest: activity against the early blight pathogen Alternaria solani. The note with it: single compound, 7 days.
Assay [4] relates to Pyricularia oryzae. The assay can be described thus: microbe, parasite or virus in culture.
For assay [5], the system named is Septoria tritici. As to the kind of experiment: Microtest: activity against the wheat leaf blotch pathogen Septoria tritici. The note with it: single compound, 7 days.
Setting [6] is: Pyricularia oryzae, 168 h, read-out: Observed efficacy.
Where [7] appears, read: Zymoseptoria tritici, 168 h, 0.063 ppm, read-out: Observed efficacy.
[8] abbreviates: Zymoseptoria tritici, 168 h, 0.25 ppm, read-out: Observed efficacy.
Setting [9] is: Zymoseptoria tritici, 168 h, read-out: Observed efficacy.

Each structure is given as a SMILES string. Like-named read-outs stand apart in the source and are kept apart here.

With `Fc1ccc([C@]2(Cn3cncn3)O[C@H]2c2ccccc2Cl)cc1` (racemic) [II-4, Epoxiconazole, reference compound], in assay [1] (0.25 ppm), the inhibition of growth at 0.25 ppm was 40%.

As for `Fc1ccc(F)c2c(NCCc3ccc(Oc4cc(C(F)(F)F)ncn4)cc3)ncnc12` [Compound I-3, (5,8-Difluoro-quinazolin-4-yl)-{2-[4-(6-trifluoromethyl-pyrimidin-4-yloxy)-phenyl]-ethyl}-amine], the results for the Observed efficacy in assay [2] (1 ppm), in assay [3] (0.25 ppm) and in assay [3] (1 ppm) were 47%, 38% and 35%, respectively. For the same molecule, in assay [4] (setting [6]), the inhibition of growth at 0.016 ppm was 34%. For the same molecule, the inhibition of growth at 0.063 ppm in assay [4] (setting [6]) stood at 45%; in assay [5] (setting [7]), 30%. Moreover, the inhibition of growth at 0.25 ppm was found to be 43% in assay [4] (setting [6]) and 33% in assay [5] (setting [8]). Moreover, the values for the inhibition of growth at 4 ppm in assay [4] (setting [6]) and in assay [1] were 72% and 35%, respectively. For the same molecule, in assay [1], the inhibition of growth at 1 ppm was determined as 22%.

On to `Fc1ccc(F)c2c(NCCc3ccc(Oc4cc(C(F)(F)F)ccn4)cc3)ncnc12` [Compound I-5, (5,8-Difluoro-quinazolin-4-yl)-{2-[4-(4-trifluoromethyl-pyridin-2-yloxy)-phenyl]-ethyl}-amine], for which the Observed efficacy in assay [2] (1 ppm) is 49%; in assay [3] (0.25 ppm), 37%; in assay [3] (1 ppm), 38%. The inhibition of growth at 0.016 ppm in assay [4] (setting [6]) was 36%. Moreover, the inhibition of growth at 0.063 ppm in assay [4] (setting [6]) is 54%; in assay [5] (setting [7]), 37%. Also, the inhibition of growth at 0.25 ppm is 59% in assay [4] (setting [6]) and 40% in assay [5] (setting [8]). The inhibition of growth at 1 ppm in assay [1] came out at 14%. In addition, in assay [1], the inhibition of growth at 4 ppm amounted to 22%.

As for `COc1cc(CCNc2ncnc3c(F)ccc(F)c23)ccc1Oc1ncc(C(F)(F)F)cc1Cl` [Compound I-17, (5,8-Difluoro-quinazolin-4-yl)-{2-[4-(3-chloro-5-trifluoromethyl-pyridin-2-yloxy)-3-methoxy-phenyl]-ethyl}-amine], the values for the Observed efficacy in assay [2] (1 ppm) and in assay [3] (1 ppm) were 42% and 26%, respectively. Moreover, the inhibition of growth at 0.063 ppm in assay [4] (setting [6]) turned out to be 14%. Further, the inhibition of growth at 0.25 ppm in assay [4] (setting [6]) is 36%; in assay [5] (setting [8]) it was 30%. In addition, the results for the inhibition of growth at 4 ppm in assay [4] (setting [6]) and in assay [1] were 69% and 11%, respectively. Further, the values for the inhibition of growth at 1 ppm in assay [1] and in assay [5] (setting [9]) were 4% and 33%, respectively.

`COc1cc(CCNc2ncnc3c(F)ccc(F)c23)ccc1Oc1cc(C(F)(F)F)ccn1` [Compound I-18, (5,8-Difluoro-quinazolin-4-yl)-{2-[4-(4-trifluoromethyl-pyridin-2-yloxy)-3-methoxy-phenyl]-ethyl}-amine]: the results for the Observed efficacy in assay [2] (1 ppm), in assay [3] (0.25 ppm) and in assay [3] (1 ppm) were 50%, 43% and 44%, respectively. The inhibition of growth at 0.016 ppm in assay [4] (setting [6]) was 41%. The inhibition of growth at 0.063 ppm in assay [4] (setting [6]) was determined as 49%; in assay [5] (setting [7]) it was 41%. For the same molecule, the results for the inhibition of growth at 0.25 ppm in assay [4] (setting [6]) and in assay [5] (setting [8]) were 54% and 44%, respectively. The inhibition of growth at 1 ppm amounted to 11% in assay [1] and 44% in assay [5] (setting [9]). The inhibition of growth at 4 ppm in assay [1] worked out at 24%.

As to `COc1cc(CCNc2ncnc3c(F)cc(F)c(F)c23)ccc1Oc1cc(C(F)(F)F)ccn1` [Compound I-19, (5,6,8-Trifluoro-quinazolin-4-yl)-{2-[4-(4-trifluoromethyl-pyridin-2-yloxy)-3-methoxy-phenyl]-ethyl}-amine], the Observed efficacy in assay [2] (1 ppm) is given as 47%. In assay [3] (1 ppm), this molecule registered an Observed efficacy of 40%. Moreover, in assay [4] (setting [6]), the inhibition of growth at 0.016 ppm was 29%, the inhibition of growth at 0.063 ppm worked out at 51%, the inhibition of growth at 0.25 ppm was 53% and the inhibition of growth at 4 ppm was determined as 71%. For the same molecule, in assay [1], the inhibition of growth at 1 ppm is 12% and the inhibition of growth at 4 ppm worked out at 15%. Besides, in assay [5] (setting [7]), the inhibition of growth at 0.063 ppm turned out to be 40%. The inhibition of growth at 1 ppm in assay [5] (setting [9]) came to 41%.

For the molecule `CO/C=C(/C(=O)OC)c1ccccc1Oc1cc(Oc2ccccc2C#N)ncn1` [II-1, Azoxystrobin, reference compound], the Observed efficacy in assay [4] (0.004 ppm, single compound, 7 days) came out at 12%; in assay [1] (0.25 ppm), 12%; in assay [5] (0.063 ppm), 54%; in assay [5] (0.25 ppm), 73%.

The molecule `Cn1cc(C(=O)Nc2ccc(F)cc2-c2ccc(Cl)c(Cl)c2)c(C(F)F)n1` [II-2, Bixafen, reference compound] gave an Observed efficacy in assay [5] (0.063 ppm) of 40%.

In the case of `N#Cc1c(Cl)c(Cl)c(Cl)c(C#N)c1Cl` [II-3, Chlorothalonil, reference compound], the inhibition of growth at 1 ppm in assay [1] worked out at 66%.

With `CC(C)CC(C)c1sccc1NC(=O)c1cn(C)nc1C(F)(F)F` (stereo not shown) [II-10, Penthiopyrad, reference compound], the inhibition of growth at 0.016 ppm in assay [5] (Zymoseptoria tritici, 168 h, 0.016 ppm, read-out: Observed efficacy) worked out at 30%.

Take `COC(=O)N(OC)c1ccccc1COc1ccn(-c2ccc(Cl)cc2)n1` [II-14, Pyraclostrobin, reference compound]: the Observed efficacy in assay [2] (0.063 ppm) worked out at 25%; in assay [3] (0.016 ppm), 34%. The inhibition of growth at 0.004 ppm in assay [4] (setting [6]) is 39%; in assay [5] (setting [9]) it was 50%. For the same molecule, the inhibition of growth at 0.25 ppm in assay [1] (0.25 ppm) was 20%.

Regarding `Fc1ccc(Oc2ccnc3cc(Cl)cc(Cl)c23)cc1` [II-15, Quinoxyfen, reference compound], in assay [4] (setting [6]), the inhibition of growth at 16 ppm came out at 9%. For the same molecule, the inhibition of growth at 1 ppm in assay [5] (setting [9]) was determined as 10%.

The molecule `CON=C(C(=O)OC)c1ccccc1CON=C(C)c1cccc(C(F)(F)F)c1` [II-17, Trifloxystrobin, reference compound] came in with an Observed efficacy in assay [3] (0.063 ppm) of 48%. In assay [4] (setting [6]), the inhibition of growth at 0.016 ppm stood at 24%. In addition, the inhibition of growth at 0.25 ppm in assay [1] (0.25 ppm) stood at 19%. Besides, the inhibition of growth at 0.004 ppm in assay [5] (setting [9]) was 40%.

For the origin of these results see patent US20130040813A1 (priority 2010, published 2013).
